≈ marks a conversion by molar mass, not a printed value. Where two headings read alike, the source gives them in different places.
Experiments:
Assay type in all cases: cell-based
[1] = test system: Staphylococcus epidermidis; test: MIC agar dilution, micro-organism 14 (11047); settings: Staphylococcus epidermidis 11047, read-out: MIC
Method in brief: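 Twofold dilutions of compound emulsions in water were set in Isosensitest agar with Brazier's CCEY medium, egg yolk and lysed horse blood. Spots of 1 µL from 0.5 McFarland suspensions diluted 1/15 were incubated aerobically at 37 °C and read at 22 and 48 h. MIC (mmol/L) was the lowest concentration giving <10 colonies.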

[2] = test system: Enterococcus faecalis (VRE) MB 1969; test: MIC agar dilution, VRE strain 27
Protocol: (§1) Molar equivalent concentrations were used to allow comparison between compounds of differing molecular mass. Due to weighing difficulties, any compound in solid form was melted in a water bath prior to dilution. To make ten-times strength concentrations, which takes into account agar dilution, 0.0352 mmol of each compound was weighed into plastic universal bottles and 4 mL of sterile distilled water (SDW) was added. To produce a homogenous emulsion the universals were vortexed; once achieved the emulsions were serial diluted by adding 2 mL to 2 mL of SDW.
(§2) For every 100 mL of Isosensitest agar (IST) (CM0471; Oxoid, Basingstoke, England), 3.1 g of the IST powder was added to 100 mL SDW (as per manufacturer's instructions) and sterilised for 15 minutes at 121° C. Once sterilised, the molten agar was cooled to 50° C. in a water-bath. Subsequently 4.8 g of CCEY powder (BC2160; Bioconnections, Wetherby, England), also known as Brazier's medium, was added to 100 mL SDW for every 100 mL of agar needed. This was then sterilised for 15 minutes at 121° C. Once sterilised the molten agar was cooled to 50° C. in a water-bath and 4 mL of egg-yolk emulsion (S2073; TCS Biosciences Ltd, Buckingham, United Kingdom) and 1 mL of lysed defibrinated horse blood (HB035; TCS Biosciences Ltd, Buckingham, United Kingdom) were also added for every 100 mL needed. Horse blood lysis is achieved by dilution to half concentration with SDW; when fully lysed the mixture will turn dark red in colour.
(§3) 18 mL agar was added to each universal and then poured into sterile Petri dishes. This step creates a 1/10 dilution resulting in agar plates of the required strength. Control plates for each set of strains were created by adding 18 mL of agar to 2 mL of SDW.
(§4) Suspensions of each bacterial species were prepared with a density equal to that of a 0.5 McFarland standard using a densitometer. All suspensions were made using sterile distilled water and fresh 18-20 hour cultures. As a 0.5 McFarland standard contains 1.5×10^8 CFU/mL and the multipoint inoculators applies 1 μL spots of liquid, each bacterial suspension was diluted 1/15 (20 μL suspension to 280 μL sterile distilled water).
(§5) Bacterial suspensions were prepared from fresh 18-24 hour cultures as previously described. 1 μL of each strain was inoculated onto all 100 agar plates containing a different chemical concentration and the 2 control plates. This was done using a multipoint inoculator which inoculates 20 strains per plate. All plates were incubated for 22 hours at 37° C. in aerobic conditions.
(§6) Each plate was examined for bacterial growth after 22 and 48 hours, with each being incubated in between examinations. A positive result was recorded as growth of ≧10 colonies. A negative result was recorded as growth of <10 colonies as this is equivalent to 99.9% inhibition. The lowest concentration of chemical that inhibited growth was recorded as the MIC. The results are recorded in Table IV below, where the numbers are quoted in mmol/L.
(§7) Given the positive performance of the ethoxylates of lauryl alcohol in reducing the MIC for a number of the micro-organisms tested, further MIC testing of Laureth-1 [C12E1] through to Laureth-8 [C12E8] was conducted on each of the following: • 10 strains of vancomycin-resistant enterococci (VRE)—listed in Table V below; and • 20 strains of methicillin-resistant Staphylococcus aureus (MRSA)—listed in Table VI.
(§8) The alkanol, alkanol derivatives, agar plates, and inocula were all prepared in the same way as described above.
(§9) The plates were examined in the same manner as described above and the results are recorded in Table VII below, where the numbers are quoted in mmol/L.

[3] = test system: Enterococcus faecalis (VRE) MB 726; test: MIC agar dilution, VRE strain 28
Protocol: as §1, §2, §3, §4, §5, §6, §7, §8, §9

MRSA BEL 97597 = test: MIC agar dilution, MRSA strain 33; settings: Staphylococcus aureus
Protocol: as §1, §2, §3, §4, §5, §6, §7, §8, §9

MRSA BEL 97598 = test: MIC agar dilution, MRSA strain 34; settings: Staphylococcus aureus
Protocol: as §1, §2, §3, §4, §5, §6, §7, §8, §9

[4] = test system: MRSA GER 1966/97 (Hanover IIIc); test: MIC agar dilution, MRSA strain 36; settings: Staphylococcus aureus
Protocol: as §1, §2, §3, §4, §5, §6, §7, §8, §9

MRSA FRA 95035 = test: MIC agar dilution, MRSA strain 37; settings: Staphylococcus aureus
Protocol: as §1, §2, §3, §4, §5, §6, §7, §8, §9

MRSA EMRSA 15 19972/98 = test: MIC agar dilution, MRSA strain 39; settings: Staphylococcus aureus
Protocol: as §1, §2, §3, §4, §5, §6, §7, §8, §9

MRSA EMRSA 15 21698/98 = test: MIC agar dilution, MRSA strain 41; settings: Staphylococcus aureus
Protocol: as §1, §2, §3, §4, §5, §6, §7, §8, §9

MRSA EMRSA 15 1758/98 = test: MIC agar dilution, MRSA strain 43; settings: Staphylococcus aureus
Protocol: as §1, §2, §3, §4, §5, §6, §7, §8, §9

MRSA EMRSA 16 21354/95 = test: MIC agar dilution, MRSA strain 44; settings: Staphylococcus aureus
Protocol: as §1, §2, §3, §4, §5, §6, §7, §8, §9

MRSA EMRSA 16 00036/95 = test: MIC agar dilution, MRSA strain 46; settings: Staphylococcus aureus
Protocol: as §1, §2, §3, §4, §5, §6, §7, §8, §9

MRSA EMRSA 16 18200/95 = test: MIC agar dilution, MRSA strain 48; settings: Staphylococcus aureus
Protocol: as §1, §2, §3, §4, §5, §6, §7, §8, §9

Compound | MIC ([1]; 22 hrs) [µM] | MIC ([1]; 48 hrs) [µM] | MIC ([2]; 22 hrs) [µM] | MIC ([2]; 48 hrs) [µM] | MIC ([3]; 22 hrs) [µM] | MIC ([3]; 48 hrs) [µM] | MIC (MRSA BEL 97597; 22 hrs) [µM] | MIC (MRSA BEL 97597; 48 hrs) [µM] | MIC (MRSA BEL 97598; 22 hrs) [µM] | MIC (MRSA BEL 97598; 48 hrs) [µM] | MIC ([4]; 22 hrs) [µM] | MIC ([4]; 48 hrs) [µM] | MIC (MRSA FRA 95035; 22 hrs) [µM] | MIC (MRSA FRA 95035; 48 hrs) [µM] | MIC (MRSA EMRSA 15 19972/98; 22 hrs) [µM] | MIC (MRSA EMRSA 15 19972/98; 48 hrs) [µM] | MIC (MRSA EMRSA 15 21698/98; 22 hrs) [µM] | MIC (MRSA EMRSA 15 21698/98; 48 hrs) [µM] | MIC (MRSA EMRSA 15 1758/98; 22 hrs) [µM] | MIC (MRSA EMRSA 15 1758/98; 48 hrs) [µM] | further results
CCCCCCCCCCCCOCCOCCOCCOCCOCCOCCO [L6, Hexaethylene Glycol Monododecyl Ether] | 110 (≈ 49.6 µg/mL) | 110 (≈ 49.6 µg/mL) | > 880 | > 880 | > 880 | > 880 | 110 (≈ 49.6 µg/mL) | 110 (≈ 49.6 µg/mL) | 220 (≈ 99.1 µg/mL) | 220 (≈ 99.1 µg/mL) | 110 (≈ 49.6 µg/mL) | 110 (≈ 49.6 µg/mL) | 220 (≈ 99.1 µg/mL) | 440 (≈ 198 µg/mL) | 110 (≈ 49.6 µg/mL) | 110 (≈ 49.6 µg/mL) | 110 (≈ 49.6 µg/mL) | 110 (≈ 49.6 µg/mL) | 110 (≈ 49.6 µg/mL) | 110 (≈ 49.6 µg/mL) | MIC (MRSA EMRSA 16 21354/95; 22 hrs): 220 µM (≈ 99.1 µg/mL); MIC (MRSA EMRSA 16 21354/95; 48 hrs): 440 µM (≈ 198 µg/mL); MIC (MRSA EMRSA 16 00036/95; 22 hrs): 220 µM (≈ 99.1 µg/mL); MIC (MRSA EMRSA 16 00036/95; 48 hrs): 440 µM (≈ 198 µg/mL); MIC (MRSA EMRSA 16 18200/95; 22 hrs): 110 µM (≈ 49.6 µg/mL); MIC (MRSA EMRSA 16 18200/95; 48 hrs): 220 µM (≈ 99.1 µg/mL)
CCCCCCCCCCCCOCCO [L1, Ethylene Glycol Monododecyl Ether] | 220 (≈ 50.7 µg/mL) | 220 (≈ 50.7 µg/mL) | 220 (≈ 50.7 µg/mL) | 220 (≈ 50.7 µg/mL) | 440 (≈ 101 µg/mL) | 440 (≈ 101 µg/mL) | 220 (≈ 50.7 µg/mL) | 220 (≈ 50.7 µg/mL) | 220 (≈ 50.7 µg/mL) | 220 (≈ 50.7 µg/mL) | 220 (≈ 50.7 µg/mL) | 220 (≈ 50.7 µg/mL) | 220 (≈ 50.7 µg/mL) | 220 (≈ 50.7 µg/mL) | 220 (≈ 50.7 µg/mL) | 220 (≈ 50.7 µg/mL) | 220 (≈ 50.7 µg/mL) | 220 (≈ 50.7 µg/mL) | 220 (≈ 50.7 µg/mL) | 220 (≈ 50.7 µg/mL) | MIC (MRSA EMRSA 16 21354/95; 22 hrs): 220 µM (≈ 50.7 µg/mL); MIC (MRSA EMRSA 16 21354/95; 48 hrs): 220 µM (≈ 50.7 µg/mL); MIC (MRSA EMRSA 16 00036/95; 22 hrs): 220 µM (≈ 50.7 µg/mL); MIC (MRSA EMRSA 16 00036/95; 48 hrs): 220 µM (≈ 50.7 µg/mL); MIC (MRSA EMRSA 16 18200/95; 22 hrs): 220 µM (≈ 50.7 µg/mL); MIC (MRSA EMRSA 16 18200/95; 48 hrs): 220 µM (≈ 50.7 µg/mL)
CCCCCCCCCCCCOCCOCCOCCOCCOCCOCCOCCOCCO [L8, Octaethylene Glycol Monododecyl Ether] | 110 (≈ 59.3 µg/mL) | 110 (≈ 59.3 µg/mL) | > 880 | > 880 | 880 (≈ 474 µg/mL) | > 880 | 220 (≈ 119 µg/mL) | > 440 | > 440 | > 440 | 110 (≈ 59.3 µg/mL) | 110 (≈ 59.3 µg/mL) | > 440 | > 440 | > 440 | > 440 | > 440 | > 440 | > 440 | > 440 | MIC (MRSA EMRSA 16 21354/95; 22 hrs): > 440 µM; MIC (MRSA EMRSA 16 21354/95; 48 hrs): > 440 µM; MIC (MRSA EMRSA 16 00036/95; 22 hrs): > 440 µM; MIC (MRSA EMRSA 16 00036/95; 48 hrs): > 440 µM; MIC (MRSA EMRSA 16 18200/95; 22 hrs): > 440 µM; MIC (MRSA EMRSA 16 18200/95; 48 hrs): > 440 µM

— patent publication US20130165368A1, “ANTIMICROBIAL COMPOUNDS” (priority 2010, published 2013)
